According to patent publication US20220117917A1, “PH-ACTIVATED NANOPARTICLES” (Ohio State Innovation Foundation, priority 2018, published 2022):

Assays:
BT474 cells = assay: Cell viability and Western blot; format: cell-based, human
Protocol: (§1) Immunoblotting. Immunoblotting was performed as described previously (Liu Y, et al. Nature 2015 520:697-701). Briefly, total cell lysates were solubilized in lysis buffer (50 mM Tris, pH 7.5, 150 mM NaCl, 1 mM EDTA, 0.5% NP-40, 0.5% Triton X-100, 1 mM phenylmethylsulfonyl fluoride, 1 mM sodium fluoride, 5 mM sodium vanadate, 1 μg each of aprotinin, leupeptin, and pepstatin per ml). Proteins were resolved by SDS-PAGE gels and then proteins were transferred to PVDF membranes (Bio-Rad). The membranes were blocked with 5% nonfat milk for 1 h at room temperature prior to incubation with indicated primary antibodies. Subsequently membranes were washed and incubated for 1 h at room temperature with peroxidase-conjugated secondary antibodies (Santa Cruz Biotechnology). Following several washes, chemiluminescent images of immunodetected bands on the membranes were recorded on X-ray films using the enhanced chemiluminescence (ECL) system (Perkinelmer) according to the manufacturer's instructions.
(§2) Cell viability assay. Equal numbers of cells were plated in 12 well plates in triplicate. After incubation with indicated reagents for 72 hours, cell viability was quantified using Vi-Cell cell viability analyzer (Beckman Coulter).

HER18 cells = assay: Cell viability and Western blot; format: cell-based, human
Protocol: as §1, §2

MDA-MB453 cells = assay: Cell viability; format: cell-based, human; details: 72 h; mutant p53
Protocol: as §2

HER18R cells = assay: Cell viability and Western blot, trastuzumab-resistant cells; format: cell-based, human; details: along with trastuzumab 1 μg/ml, 72 h
Wip1 = molecular target: T1, Wip1 (Homo sapiens, UniProt O15297); details: cited from earlier work
T1 sequence (O15297 1-605): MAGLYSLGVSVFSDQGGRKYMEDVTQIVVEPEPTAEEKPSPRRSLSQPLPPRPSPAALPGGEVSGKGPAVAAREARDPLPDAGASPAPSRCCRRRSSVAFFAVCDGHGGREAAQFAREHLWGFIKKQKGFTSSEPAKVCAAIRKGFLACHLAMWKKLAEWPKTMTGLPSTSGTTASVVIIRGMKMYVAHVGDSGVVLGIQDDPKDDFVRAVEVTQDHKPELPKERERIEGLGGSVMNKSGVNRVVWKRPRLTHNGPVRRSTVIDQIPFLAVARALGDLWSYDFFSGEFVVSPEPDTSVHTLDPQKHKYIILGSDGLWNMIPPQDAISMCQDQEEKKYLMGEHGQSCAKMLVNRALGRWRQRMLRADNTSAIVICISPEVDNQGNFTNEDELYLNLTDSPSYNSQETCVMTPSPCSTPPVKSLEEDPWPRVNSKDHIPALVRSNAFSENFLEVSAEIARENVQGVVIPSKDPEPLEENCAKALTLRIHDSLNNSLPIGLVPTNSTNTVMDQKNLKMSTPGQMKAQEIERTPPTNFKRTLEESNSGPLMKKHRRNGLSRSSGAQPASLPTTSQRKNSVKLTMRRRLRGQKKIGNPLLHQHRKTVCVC

[1] = cited from earlier work
[2] = cited from earlier work; remark: listed apart in the source
[3] = design: species or system mice; details: mouse, in vivo
Protocol: The tumor targeting capability of the nanoparticles was next investigated in mice. Indocyanine green (ICG) was encapsulated in the nanoparticles for in vivo imaging. […] To confirm the observation from whole animal imaging, various organs were harvested for ex vivo imaging to check the biodistribution of ICG after sacrificing the mice at 24 h. […] The antitumor efficacy and safety of the WIP1 and/or miR-21 inhibitor-laden nanoparticles were also investigated in vivo by treating orthotopic HER18R mammary tumor-bearing mice. The tumors were established by injecting 2,000,000 HER18R cells per animal into the fat pad of 6-8 week-old female nude mice. The tumor-bearing mice were divided randomly into four groups: blank nanoparticles, WIP1 inhibitor-laden nanoparticles, miR-21 inhibitor-laden nanoparticles, and WIP1+miR-21 inhibitors-laden nanoparticles. Mice were treated with 1.0 mg/kg body weight of miR-21 inhibitor and/or 5.0 mg/kg of WIP1 inhibitor encapsulated in the nanoparticles via intravenous injection when the tumor reached a volume of ˜150 mm^3 at 21 days after implantation. […] Moreover, side effect of the drug-laden or blank nanoparticles was negligible.

[4] = Electrophoretic stability assay of anti-miR21 oligonucleotide; format: in vitro ADME; details: 37° C.
Protocol: Electrophoretic gel assay. Free anti-miR21 oligonucleotide and in-MW@NP (in PBS or serum) were mixed with loading buffer, and then loaded into 2% wt agarose gel with […] ethidium bromide. Electrophoresis was conducted in 1×TEA buffer at 80 V for 10 min. The result gels were analyzed using a UV illuminator (FluorChem™ E System, CA, USA) to show its location of anti-miR21 oligonucleotide.

Cc1ncc(Cl)cc1NCc1ccc(C(=O)N[C@@H](CC2CCCC2)C(=O)NC2CC2)s1 [GSK2830371]
sensitivity (cell viability) (BT474 cells; 72 h, mutant p53): notably insensitive
sensitivity (cell viability) (HER18 cells; 72 h, wildtype p53): very sensitive
phosphorylated CHK2 and p21 levels (HER18 cells; immunoblotting): significantly increased the levels of phosphorylated CHK2 and the p53-induced p21
sensitivity (cell viability) (MDA-MB453 cells): notably insensitive
sensitization to trastuzumab (HER18R cells): sensitized
selectivity for Wip1 over other phosphatases (Wip1): selectivity for Wip1 over 21 other phosphatases
solubility in water [1]: poor solubility in water
bioavailability in vivo [2]: poor bioavailability in vivo

CC1(C)C(/C=C/C=C/C=C/C=C2\N(CCCCS(=O)(=O)O)c3ccc4ccccc4c3C2(C)C)=[N+](CCCCS(=O)(=O)[O-])c2ccc3ccccc3c21 [free ICG, Indocyanine green]
ICG fluorescence in liver [3]: weak fluorescence
ICG signal / localization [3]: no notable signal

anti-miR-21: anti-miR-21 oligonucleotide; in some embodiments UCAACAUCAGUCUGAUAAGCUAG (SEQ ID NO: 5) (further chemistry not given here)
cell proliferation and viability (BT474 cells; HER2+/p53-mutant cells with 17q23 amplification): significantly reduced the cell proliferation and viability
sensitization to trastuzumab (HER18R cells): sensitized
onset of degradation [4]: started to degrade in a few minutes
time oligonucleotide observable ([4]; up to 36 h): less than 2 h
stability in blood ([2]; in vivo): relatively unstable in blood
